Results reported in ChEMBL document CHEMBL5360658, “Discovery of MK-8768, a Potent and Selective mGluR2 Negative Allosteric Modulator” (ACS Med Chem Lett, 2023).
≈ marks a conversion by molar mass, not a printed value.

Assays:
[1] = Solubility of the compound at pH 7; assay type: physicochemical; conditions: buffer
[2] = Oral bioavailability in rat; assay type: ADME, organism-based; conditions: in vivo
[3] = Apparent permeability in […] LLC-MDR1 cell; assay type: ADME, cell-based; conditions: LLC-PK1
[4] = biological target: Voltage-gated inwardly rectifying potassium channel KCNH2 (Homo sapiens, UniProt Q12809); assay: Displacement of [35S]-MK-499 from hERG expressed in HEK293 cells […]; assay type: toxicity, cell-based
[5] = biological target: Metabotropic glutamate receptor 3 (Homo sapiens, UniProt Q14832); assay: Negative allosteric modulation at mGluR3 receptor (unknown origin) assessed as effect on intracellular calcium flux measured after 5 min by Fluo-4AM dye based FLIPR analysis; assay type: functional, cell-based
[6] = biological target: Sodium channel protein type 5 subunit alpha (Homo sapiens, UniProt Q14524); assay: Inhibition of NaV 1.5 channel (unknown origin) by automated patch-clamp assay
[7] = biological target: Voltage-dependent L-type calcium channel subunit alpha-1C (Homo sapiens, UniProt Q13936); assay: Inhibition of Cav1.2 (unknown origin)
[8] = Oral bioavailability in rat at 20 mg/kg; assay type: ADME, organism-based; conditions: in vivo
[9] = biological target: Metabotropic glutamate receptor 2 (Homo sapiens, UniProt Q14416); assay: Negative allosteric modulation at human mGluR2 receptor stably expressed in DHFR null CHO cells co-expressing Galpha16 assessed as effect on intracellular calcium flux measured after 5 min by Fluo-4AM dye based FLIPR analysis; assay type: functional, cell-based
P-gp (ABCB1) = P-gp (ABCB1) (Rattus norvegicus, UniProt P43245); assay: Substrate activity at rat P-gp […] in […] LLC-MDR1 cells assessed as efflux ratio of apparent permeability across basolateral to apical over apical to basolateral side; assay type: ADME, cell-based, LLC-MDR1 cell; conditions: LLC-PK1
[10] = biological target: T1, Nuclear receptor subfamily 1 group I member 2 (Homo sapiens, UniProt O75469); assay: Agonist activity at PXR (unknown origin)
T1 sequence (O75469 whole entry): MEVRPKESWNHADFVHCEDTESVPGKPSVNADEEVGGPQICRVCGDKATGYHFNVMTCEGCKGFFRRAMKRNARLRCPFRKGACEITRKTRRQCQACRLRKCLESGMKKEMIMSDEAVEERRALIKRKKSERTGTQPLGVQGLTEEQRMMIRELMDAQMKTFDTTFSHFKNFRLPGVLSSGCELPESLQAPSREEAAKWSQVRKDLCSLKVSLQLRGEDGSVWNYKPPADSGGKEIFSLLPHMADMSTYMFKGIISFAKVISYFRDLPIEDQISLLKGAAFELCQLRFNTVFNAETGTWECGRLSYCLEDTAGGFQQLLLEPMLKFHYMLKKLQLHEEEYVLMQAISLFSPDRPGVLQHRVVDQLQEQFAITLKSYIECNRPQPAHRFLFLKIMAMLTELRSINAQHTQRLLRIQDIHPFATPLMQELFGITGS

PXR (NR1I2) = biological target: T2, PXR (NR1I2) (Homo sapiens, UniProt O75469); assay: Agonist activity at PXR (unknown origin) assessed as maximal efficacy at 30 uM
T2 sequence (O75469 whole entry): T1 sequence (O75469 whole entry)

Sequence of Voltage-gated inwardly rectifying potassium channel KCNH2 (Q12809 whole entry): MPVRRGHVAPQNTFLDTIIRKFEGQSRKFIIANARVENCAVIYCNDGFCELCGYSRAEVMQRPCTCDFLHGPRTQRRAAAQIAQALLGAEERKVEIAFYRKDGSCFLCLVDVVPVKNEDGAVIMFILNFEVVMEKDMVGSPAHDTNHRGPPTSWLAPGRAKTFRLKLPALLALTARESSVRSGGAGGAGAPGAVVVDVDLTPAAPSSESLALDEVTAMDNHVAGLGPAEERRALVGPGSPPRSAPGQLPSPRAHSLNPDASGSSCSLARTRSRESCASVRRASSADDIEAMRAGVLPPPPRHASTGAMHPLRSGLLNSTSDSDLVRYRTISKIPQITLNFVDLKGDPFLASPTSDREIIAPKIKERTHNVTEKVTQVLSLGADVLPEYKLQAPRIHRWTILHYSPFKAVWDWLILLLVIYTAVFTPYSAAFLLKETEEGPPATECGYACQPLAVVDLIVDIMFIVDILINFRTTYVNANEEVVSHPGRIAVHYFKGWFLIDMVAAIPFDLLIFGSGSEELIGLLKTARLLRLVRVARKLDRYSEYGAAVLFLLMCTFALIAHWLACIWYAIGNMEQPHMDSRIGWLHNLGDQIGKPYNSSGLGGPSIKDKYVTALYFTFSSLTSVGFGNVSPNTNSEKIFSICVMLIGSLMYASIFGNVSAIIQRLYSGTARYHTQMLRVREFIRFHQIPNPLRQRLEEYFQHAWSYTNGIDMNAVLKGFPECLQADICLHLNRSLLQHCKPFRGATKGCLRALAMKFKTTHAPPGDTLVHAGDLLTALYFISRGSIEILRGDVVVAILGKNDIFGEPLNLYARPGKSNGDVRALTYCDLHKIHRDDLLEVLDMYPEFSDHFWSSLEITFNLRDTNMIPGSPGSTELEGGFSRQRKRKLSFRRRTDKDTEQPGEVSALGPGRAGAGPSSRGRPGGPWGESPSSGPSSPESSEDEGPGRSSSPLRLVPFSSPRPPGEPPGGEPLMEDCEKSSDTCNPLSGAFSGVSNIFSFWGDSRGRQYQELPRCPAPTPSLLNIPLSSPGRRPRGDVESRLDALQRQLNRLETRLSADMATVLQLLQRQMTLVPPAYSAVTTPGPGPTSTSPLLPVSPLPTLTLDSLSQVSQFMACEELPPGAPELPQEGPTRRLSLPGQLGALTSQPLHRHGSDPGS
Sequence of P-gp (ABCB1) (P43245 whole entry): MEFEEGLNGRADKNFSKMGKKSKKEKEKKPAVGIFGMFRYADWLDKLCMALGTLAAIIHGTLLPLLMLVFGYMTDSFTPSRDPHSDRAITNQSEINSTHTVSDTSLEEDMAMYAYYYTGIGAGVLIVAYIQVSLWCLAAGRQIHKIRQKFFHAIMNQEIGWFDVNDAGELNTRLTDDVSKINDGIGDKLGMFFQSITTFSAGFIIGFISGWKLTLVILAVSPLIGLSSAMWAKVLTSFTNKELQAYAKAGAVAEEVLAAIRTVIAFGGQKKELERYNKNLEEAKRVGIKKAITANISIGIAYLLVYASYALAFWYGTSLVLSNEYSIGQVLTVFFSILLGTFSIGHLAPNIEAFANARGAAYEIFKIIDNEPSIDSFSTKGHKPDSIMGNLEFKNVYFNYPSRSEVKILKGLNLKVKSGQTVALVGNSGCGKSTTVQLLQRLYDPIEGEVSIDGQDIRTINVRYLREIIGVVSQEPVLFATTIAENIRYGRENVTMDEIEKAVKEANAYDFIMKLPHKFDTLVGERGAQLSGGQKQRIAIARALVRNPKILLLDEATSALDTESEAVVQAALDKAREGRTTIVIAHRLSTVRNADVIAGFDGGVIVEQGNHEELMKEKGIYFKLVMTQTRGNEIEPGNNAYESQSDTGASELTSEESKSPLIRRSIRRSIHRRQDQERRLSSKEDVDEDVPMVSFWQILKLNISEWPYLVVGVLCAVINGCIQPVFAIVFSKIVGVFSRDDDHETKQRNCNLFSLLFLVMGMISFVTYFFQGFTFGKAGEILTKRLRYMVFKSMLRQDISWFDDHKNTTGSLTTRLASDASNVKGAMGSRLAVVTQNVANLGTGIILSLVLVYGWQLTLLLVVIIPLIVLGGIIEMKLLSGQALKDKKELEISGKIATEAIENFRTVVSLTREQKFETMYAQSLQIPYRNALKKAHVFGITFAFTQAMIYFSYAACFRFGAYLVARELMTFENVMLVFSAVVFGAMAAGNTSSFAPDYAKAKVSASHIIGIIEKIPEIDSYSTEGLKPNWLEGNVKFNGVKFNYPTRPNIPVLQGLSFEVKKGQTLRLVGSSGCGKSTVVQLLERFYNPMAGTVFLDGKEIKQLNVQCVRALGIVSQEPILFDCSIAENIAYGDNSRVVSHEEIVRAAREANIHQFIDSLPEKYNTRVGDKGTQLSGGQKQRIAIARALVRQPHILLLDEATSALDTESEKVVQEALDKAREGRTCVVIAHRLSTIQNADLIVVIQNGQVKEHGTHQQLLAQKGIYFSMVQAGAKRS
Sequence of Metabotropic glutamate receptor 2 (Q14416 whole entry): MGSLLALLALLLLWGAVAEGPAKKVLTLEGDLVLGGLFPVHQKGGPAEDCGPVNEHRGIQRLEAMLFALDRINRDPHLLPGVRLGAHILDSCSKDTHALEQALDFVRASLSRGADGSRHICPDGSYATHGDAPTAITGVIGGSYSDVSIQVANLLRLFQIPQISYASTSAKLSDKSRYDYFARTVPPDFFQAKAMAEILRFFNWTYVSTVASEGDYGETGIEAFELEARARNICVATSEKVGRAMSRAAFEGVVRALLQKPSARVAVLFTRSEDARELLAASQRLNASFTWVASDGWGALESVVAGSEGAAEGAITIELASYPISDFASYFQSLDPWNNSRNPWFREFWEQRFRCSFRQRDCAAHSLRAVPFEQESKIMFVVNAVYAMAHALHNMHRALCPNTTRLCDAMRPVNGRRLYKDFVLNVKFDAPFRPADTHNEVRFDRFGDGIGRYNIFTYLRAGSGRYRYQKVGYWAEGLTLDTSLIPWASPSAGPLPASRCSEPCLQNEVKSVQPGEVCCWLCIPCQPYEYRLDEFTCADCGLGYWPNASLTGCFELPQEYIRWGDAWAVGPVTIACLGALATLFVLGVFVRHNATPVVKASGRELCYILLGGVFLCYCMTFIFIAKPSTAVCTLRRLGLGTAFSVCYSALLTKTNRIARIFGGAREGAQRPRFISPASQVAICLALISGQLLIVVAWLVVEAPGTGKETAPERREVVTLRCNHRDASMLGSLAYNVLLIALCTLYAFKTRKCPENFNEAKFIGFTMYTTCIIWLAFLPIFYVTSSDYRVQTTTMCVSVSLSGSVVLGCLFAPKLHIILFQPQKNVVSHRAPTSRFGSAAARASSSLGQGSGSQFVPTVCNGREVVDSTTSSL
Sequence of Metabotropic glutamate receptor 3 (Q14832 whole entry): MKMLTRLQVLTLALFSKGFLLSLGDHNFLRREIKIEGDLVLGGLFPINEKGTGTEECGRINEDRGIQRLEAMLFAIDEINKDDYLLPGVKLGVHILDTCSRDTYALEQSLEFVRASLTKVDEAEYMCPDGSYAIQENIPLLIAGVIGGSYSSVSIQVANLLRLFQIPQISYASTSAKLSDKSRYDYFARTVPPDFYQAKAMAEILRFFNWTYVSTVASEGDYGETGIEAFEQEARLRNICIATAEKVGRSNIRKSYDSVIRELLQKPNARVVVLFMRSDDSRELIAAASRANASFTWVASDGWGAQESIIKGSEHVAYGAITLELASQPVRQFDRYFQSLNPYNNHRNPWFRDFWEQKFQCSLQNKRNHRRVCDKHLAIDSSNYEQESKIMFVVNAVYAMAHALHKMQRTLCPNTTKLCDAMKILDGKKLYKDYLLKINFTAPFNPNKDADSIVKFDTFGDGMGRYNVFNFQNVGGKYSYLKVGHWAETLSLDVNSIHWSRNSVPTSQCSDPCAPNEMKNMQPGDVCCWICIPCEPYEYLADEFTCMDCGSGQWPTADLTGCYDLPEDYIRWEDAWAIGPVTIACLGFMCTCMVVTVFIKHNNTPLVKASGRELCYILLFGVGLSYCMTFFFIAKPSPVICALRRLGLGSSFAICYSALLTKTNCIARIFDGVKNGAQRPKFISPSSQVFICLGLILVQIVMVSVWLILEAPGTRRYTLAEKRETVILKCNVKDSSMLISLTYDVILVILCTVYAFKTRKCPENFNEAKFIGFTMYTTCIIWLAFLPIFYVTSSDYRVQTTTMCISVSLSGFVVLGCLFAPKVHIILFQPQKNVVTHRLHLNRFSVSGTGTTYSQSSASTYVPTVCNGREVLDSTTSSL

| Compound | solubility [1] | bioavailability [2] | solubility ([1]; read-out: solubility) | Papp [3] | IC50 [4] | IC50 [5] | IC50 [6] | IC50 [7] | bioavailability [8] | IC50 [9] | efflux ratio (P-gp (ABCB1)) | EC50 [10] | Emax at 30 µM (PXR (NR1I2)) |
| --- | --- | --- | --- | --- | --- | --- | --- | --- | --- | --- | --- | --- | --- |
| NC(=O)c1cc(-c2ccc(F)cc2)c2ccc(CN3C(=O)CCC3=O)cc2n1 | 4 µM (≈ 1.51 µg/mL) | 100% |  |  |  |  |  |  |  |  |  |  |  |
| Cn1cc(-c2cc(C(N)=O)nc3cc(CN4CCO[C@@H](C(F)(F)F)C4)ccc23)cn1 |  |  | 142 µM (≈ 59.6 µg/mL) | 29 ×10⁻⁶ cm/s | > 60 µM | 7.8 µM | > 30 µM | 22 µM | 100% |  |  |  |  |
| CN1CC=C(c2cc(C(N)=O)nc3cc(CN4C(=O)CCC4=O)ccc23)CC1 |  |  | 203 µM (≈ 76.8 µg/mL) | 38 ×10⁻⁶ cm/s |  |  |  |  |  | 4.03 µM | 19 |  |  |
| NC(=O)c1cc(-c2ccc(F)cc2)c2ccc(CNCC(F)(F)F)cc2n1 |  |  | 6 µM (≈ 2.26 µg/mL) | 24 ×10⁻⁶ cm/s | 10.2 µM |  |  |  |  |  |  | > 30 µM | 50% |
| Cc1ccn(-c2cc(C(N)=O)nc3cc(CN4C(=O)CCC4=O)ccc23)n1 |  |  | 46 µM (≈ 16.7 µg/mL) | 30 ×10⁻⁶ cm/s | > 60 µM |  |  |  |  | > 5 µM | 18 |  |  |
| CC1CC=C(c2cc(C(N)=O)nc3cc(CN4C(=O)CCC4=O)ccc23)CC1 (racemic) |  |  | < 1 µM | 33 ×10⁻⁶ cm/s | 27 µM |  |  |  |  |  |  | 0.6 µM | 115% |
| CC(C)C1CN(Cc2ccc3c(-c4cnn(C)c4)cc(C(N)=O)nc3c2)CCO1 (racemic) |  |  | 142 µM (≈ 55.9 µg/mL) | 34 ×10⁻⁶ cm/s | 23 µM |  |  |  |  | 0.023 µM | 1.3 | 29 µM | 51% |
| Cn1cc(-c2cc(C(N)=O)nc3cc(CN4CCOC(C(F)F)C4)ccc23)cn1 (racemic) |  |  | 193 µM (≈ 77.5 µg/mL) |  |  |  |  |  |  | 0.067 µM |  |  |  |
| NC(=O)c1cc(-c2ccc(F)cc2)c2ccc(C(N3CCOCC3)C(F)(F)F)cc2n1 (racemic) |  |  | < 2 µM | 28 ×10⁻⁶ cm/s | 11.2 µM |  |  |  |  | 0.041 µM |  |  |  |
| Cn1cc(-c2cc(C(N)=O)nc3cc(CN4CCOC(C5CC5)C4)ccc23)cn1 (racemic) |  |  | 175 µM (≈ 68.5 µg/mL) | 29 ×10⁻⁶ cm/s | 51 µM |  |  |  |  | 0.032 µM |  |  |  |
| CC(c1ccc2c(-c3cnn(C)c3)cc(C(N)=O)nc2c1)c1cnn(CC(F)(F)F)c1 (racemic) |  |  | 107 µM (≈ 45.8 µg/mL) | 29 ×10⁻⁶ cm/s | 10 µM |  |  |  |  | 0.011 µM | 18 | 19 µM | 75% |
| Cn1cc(-c2cc(C(N)=O)nc3cc(CN4CCNC(C(F)(F)F)C4)ccc23)cn1 (racemic) |  |  | 175 µM (≈ 73.2 µg/mL) | 29 ×10⁻⁶ cm/s | > 20 µM |  |  |  |  | 0.122 µM |  |  |  |
